According to US9353082B2, “Pharmaceutical compounds” (BIAL—PORTELA & CA, S.A., priority 2008, dated 2016):
Where a name gives a salt, the structure may show the parent alone.

Target: T1, FAAH (Rattus norvegicus, UniProt P97612)
T1 construct: Frozen brains (without cerebellum) from Wistar rats were used; from tissue; host or cells: Wistar rat brain (without cerebellum), washed membrane pellets
T1 sequence (P97612 1-579): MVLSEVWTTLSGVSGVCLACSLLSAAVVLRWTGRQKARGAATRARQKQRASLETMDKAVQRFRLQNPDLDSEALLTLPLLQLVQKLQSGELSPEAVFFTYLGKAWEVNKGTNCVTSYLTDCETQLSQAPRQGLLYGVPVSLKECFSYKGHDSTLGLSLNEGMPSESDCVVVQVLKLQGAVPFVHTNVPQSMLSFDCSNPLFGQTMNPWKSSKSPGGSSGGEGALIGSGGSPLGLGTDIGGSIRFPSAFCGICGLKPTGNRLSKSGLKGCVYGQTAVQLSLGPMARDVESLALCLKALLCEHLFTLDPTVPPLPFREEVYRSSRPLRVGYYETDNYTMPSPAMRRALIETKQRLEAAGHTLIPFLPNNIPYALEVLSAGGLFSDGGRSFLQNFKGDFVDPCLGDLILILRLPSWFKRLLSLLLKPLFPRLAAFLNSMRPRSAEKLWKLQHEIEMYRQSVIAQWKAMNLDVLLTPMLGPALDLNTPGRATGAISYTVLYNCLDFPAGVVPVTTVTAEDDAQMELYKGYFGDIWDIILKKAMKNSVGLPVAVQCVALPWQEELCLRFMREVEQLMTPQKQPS
Test: In vitro FAAH activity in rat brain membranes, 3H-AEA substrate, % of control
Assay type: biochemical, Wistar rats
Conditions: low value = strong inhibitor; for In Vitro FAAH activity, 10 uM: 10 uM test compound; for In Vitro FAAH activity, 100 nM: 100 nM test compound
Protocol: 3. Biological Efficacy of Compounds of the Invention The in vitro test was performed according to the protocol described below. The controls for both in vitro and in vivo were the reaction mix minus the test compounds. Therefore, a low value in Table 1 below for the test compounds indicates a strong inhibitor.
The in vitro pharmaceutical FAAH activity was determined according to the following method:
Frozen brains (without cerebellum) from Wistar rats were used, and each brain was homogenized in 15 ml 1 mM MgCL2, […] HEPES pH 7.0 with Potter Elvejhem (8 strokes at 500 rpm). Homogenates were centrifuged for 20 min at 36000 g at 4° C. (Beckman, 70Ti rotor). Pellets were resuspended in 15 ml of the same buffer and centrifuged under the same conditions. Pellets were resuspended in 15 ml of the same buffer and incubated for 15 min at 37° C. after which they were centrifuged for 20 min at 36000 g at 4° C. Each pellet was then resuspended in 15 ml 3 mM MgCl2, 1 mM EDTA, 50 mM Tris pH 7.4 and protein determined with BioRad Protein Assay (BioRad) using a standard curve of BSA (50-250 μg/ml). The membrane suspensions were aliquoted and stored at −80° C.
The FAAH activity was determined using AEA (labelled with 3H in the ethanolamine part of the molecule) as substrate and measuring the 3H-ethanolamine formed. Reaction mix (total volume of 200 up contained: 2 μM AEA (2 μM AEA+5 nM 3H-AEA), 0.1% fatty acid free BSA, 5 μg protein, in 1 mM EDTA, 10 mM Tris pH 7.6 and 10 μM or 0.1 μM compounds. Stock solutions of the compounds to test (10 mM) were prepared in 100% DMSO and the DMSO concentration in the assay was 0.1%. After a 15 min preincubation period at 37° C., reaction was started by the addition of the substrate solution ([…]). Reaction was carried out for 10 min before termination by the addition of 400 μl activated charcoal suspension (8 g charcoal in 32 ml 0.5 M HCl in continuous agitation). After a 30 min incubation period at room temperature with agitation, charcoal was sedimented by centrifugation in microfuge (10 min at 13000 rpm). 200 μl of the supernatant were added to 800 μl Optiphase Supermix scintillation cocktail previously distributed in 24-well plates. Counts per minute (cpm) were determined in Microbeta TriLux scintillation counter (10 min counting or until s=2).
In each assay blanks (no protein, usually below 200 cpm) and controls (no compound) were present. The results are reported in Table 1 as % of control after blank subtraction.

Row | SMILES | In Vitro FAAH activity, 10 uM | In Vitro FAAH activity, 100 nM
1 | O=C(N1CCOCC1)n1ccnc1 [Compound 1, (1H-imidazol-1-yl)(morpholino)methanone] | 62.6 % of control | 
2 | CN(C(=O)n1ccnc1)c1ccccc1 [Compound 2, N-methyl-N-phenyl-1H-imidazole-1-carboxamide] | 11.7 % of control | 
3 | O=C(N1CCOCC1)n1cnc(-c2ccccc2)c1 [Compound 3, morpholino(4-phenyl-1H-imidazol-1-yl)methanone] | 4.8 % of control | 
4 | O=C(Nc1ccccc1)n1ccc(-c2ccccc2)n1 [Compound 5, N,3-diphenyl-1H-pyrazole-1-carboxamide] | 91.3 % of control | 
5 | COc1ccc(NC(=O)n2ccc(-c3ccccc3)n2)cc1 [Compound 6, N-(4-methoxyphenyl)-3-phenyl-1H-pyrazole-1-carboxamide] | 91.1 % of control | 
6 | CN(C(=O)n1cncn1)c1ccccc1 [Compound 7, N-methyl-N-phenyl-1H-1,2,4-triazole-1-carboxamide] | 0 % of control | 17 % of control
7 | CN(C(=O)n1cccn1)c1ccccc1 [Compound 8, N-methyl-N-phenyl-1H-pyrazole-1-carboxamide] | 13.2 % of control | 
8 | O=C(Nc1ccccc1)n1cccn1 [Compound 9, N-phenyl-1H-pyrazole-1-carboxamide] | 78.6 % of control | 
9 | O=C(Nc1ccc(Oc2ccccc2)cc1)n1ccc(-c2ccccc2)n1 [Compound 10, N-(4-phenoxyphenyl)-3-phenyl-1H-pyrazole-1-carboxamide] | 55 % of control | 
10 | O=C(Nc1ccc(OCc2ccccc2)cc1)n1ccc(-c2ccccc2)n1 [Compound 11, N-(4-(benzyloxy)phenyl)-3-phenyl-1H-pyrazole-1-carboxamide] | 82.6 % of control | 
11 | CN(C(=O)n1ccc(-c2ccccc2)n1)c1ccccc1 [Compound 12, N-methyl-N,3-diphenyl-1H-pyrazole-1-carboxamide] | 86 % of control | 
12 | O=C(N1CCOCC1)n1ccc(-c2ccccc2)n1 [Compound 13, morpholino(3-phenyl-1H-pyrazol-1-yl)methanone] | 89.7 % of control | 
13 | O=C(Nc1ccc(-c2ccccc2)cc1)n1ccc(-c2ccccc2)n1 [Compound 15, N-(biphenyl-4-yl)-3-phenyl-1H-pyrazole-1-carboxamide] | 66.9 % of control | 103.8 % of control
14 | COc1ccc(N(C)C(=O)n2cnc(-c3ccccc3)c2)cc1 [Compound 17, N-(4-methoxyphenyl)-N-methyl-4-phenyl-1H-imidazole-1-carboxamide] | 65 % of control | 
15 | CN(C(=O)n1cnc2ccccc21)c1ccccc1 [Compound 18, N-methyl-N-phenyl-1H-benzo[d]imidazole-1-carboxamide] | 67.9 % of control | 
16 | O=C(Nc1ccccc1)n1ccc(-c2ccc(-c3ccccc3)cc2)n1 [Compound 20, 3-(biphenyl-4-yl)-N-phenyl-1H-pyrazole-1-carboxamide] | 97.3 % of control | 
17 | O=C(N1CCOCC1)n1ccc(-c2cccnc2)n1 [Compound 21, morpholino(3-(pyridin-3-yl)-1H-pyrazol-1-yl)methanone hydrochloride] | 79.1 % of control | 

Row | SMILES | In Vitro FAAH activity, 10 uM | In Vitro FAAH activity, 100 nM
18 | COc1cccc(NC(=O)n2ccc(-c3ccc(-c4ccccc4)cc3)n2)c1 [Compound 22, 3-(biphenyl-4-yl)-N-(3-methoxyphenyl)-1H-pyrazole-1-carboxamide] | 95.8 % of control | 
19 | COc1ccc(NC(=O)n2ccc(-c3ccc(-c4ccccc4)cc3)n2)cc1 [Compound 23, 3-(biphenyl-4-yl)-N-(4-methoxyphenyl)-1H-pyrazole-1-carboxamide] | 93 % of control | 
20 | CN(C(=O)n1ccc(-c2cccnc2)n1)c1ccccc1 [Compound 24, N-methyl-N-phenyl-3-(pyridin-3-yl)-1H-pyrazole-1-carboxamide] | 22.9 % of control | 
21 | CN(C(=O)n1ccc(-c2ccc(-c3ccccc3)cc2)n1)c1ccccc1 [Compound 25, 3-(biphenyl-4-yl)-N-methyl-N-phenyl-1H-pyrazole-1-carboxamide] | 99 % of control | 
22 | CN(C(=O)n1ccnc1-c1ccccc1)c1ccccc1 [Compound 26, N-methyl-N,2-diphenyl-1H-imidazole-1-carboxamide] | 92.6 % of control | 
23 | CN(C(=O)n1cnc(-c2ccc(Cl)cc2)c1)c1ccccc1 [Compound 27, 4-(4-chlorophenyl)-N-methyl-N-phenyl-1H-imidazole-1-carboxamide] | 0.2 % of control | 71.4 % of control
24 | COc1ccc(-c2cn(C(=O)N(C)c3ccccc3)cn2)cc1 [Compound 28, 4-(4-methoxyphenyl)-N-methyl-N-phenyl-1H-imidazole-1-carboxamide] | 0.7 % of control | 85.1 % of control
25 | CN(C(=O)n1cnc(-c2ccccc2F)c1)c1ccccc1 [Compound 30, 4-(2-fluorophenyl)-N-methyl-N-phenyl-1H-imidazole-1-carboxamide] | 0.1 % of control | 72.5 % of control
26 | COc1cccc(-c2cn(C(=O)N(C)c3ccccc3)cn2)c1 [Compound 31, 4-(3-methoxyphenyl)-N-methyl-N-phenyl-1H-imidazole-1-carboxamide] | 0 % of control | 69 % of control
27 | CN(C(=O)n1cnc(-c2ccc(-c3ccccc3)cc2)c1)c1ccccc1 [Compound 35, 4-(biphenyl-4-yl)-N-methyl-N-phenyl-1H-imidazole-1-carboxamide] | 103.1 % of control | 
28 | COc1ccc(-c2cn(C(=O)N(C)c3ccc(F)cc3)cn2)cc1 [Compound 36, N-(4-fluorophenyl)-4-(4-methoxyphenyl)-N-methyl-1H-imidazole-1-carboxamide] | 5 % of control | 
29 | O=C(N1CCCc2ccccc21)n1cnc(-c2ccccc2)c1 [Compound 37, (3,4-dihydroquinolin-1(2H)-yl)(4-phenyl-1H-imidazol-1-yl)methanone] | 51.7 % of control | 
30 | CN(C(=O)n1cnc(-c2ccc(O)cc2)c1)c1ccccc1 [Compound 38, 4-(4-hydroxyphenyl)-N-methyl-N-phenyl-1H-imidazole-1-carboxamide] | 0 % of control | 83.9 % of control
31 | CN(C(=O)n1cnc(-c2ccc(Cl)cc2)c1)c1ccc(F)cc1 [Compound 43, 4-(4-chlorophenyl)-N-(4-fluorophenyl)-N-methyl-1H-imidazole-1-carboxamide] | 0.1 % of control | 88 % of control
32 | O=C(N1CCCc2ccccc21)n1cnc(-c2ccc(F)cc2)c1 [Compound 44, (3,4-dihydroquinolin-1(2H)-yl)(4-(4-fluorophenyl)-1H-imidazol-1-yl)methanone] |  | 97.8 % of control
33 | CN(C(=O)n1cnc(-c2ccccc2F)c1)c1ccc(F)cc1 [Compound 45, 4-(2-fluorophenyl)-N-(4-fluorophenyl)-N-methyl-1H-imidazole-1-carboxamide] |  | 83 % of control
